The source of these data is patent US4382030A, “2-Acylaminomethyl-1,4-benzodiazepine derivatives and their salts, pharmaceutical compositions thereof and process for their preparation” (Kali-Chemie Pharma GmbH, priority 1979, dated 1983).

SMILES strings stand for the structures.

Holding throughout (assay type): in vivo
Data set [1] deals with rats (secondary arthritis pain, mycobacterium smegmae). In words: Arthritis Pain Test in Rats. Particulars: po, rat, p.o., 3 hours after administration, protection in 50% of treated animals. How it is done:
(§1) This analgesic activity has been evaluated in two pharmacological standard methods, the tail flick test in mice and the arthritis pain test in rats.
2. Arthritis Pain Test in Rats.
Male rats having a weight of from 160 to 180 g are anesthetized by small i.p. injection of 20 mg/kg of sodium pentobarbital and 0.1 ml of a suspension of mycobacterium smegmae (SI 043) in liquid paraffin (0.6 mg mycobacterium/0.1 ml of oil) are injected intracutaneously into the left rear paw. Fourteen days later when a marked secondary arthritis has developed in particular in the right rear paw, the effect of the test compound is evaluated. A control-reading is taken 30 minutes prior to administration of the test compound by bending the foot joint of the right rear paw three times and counting the number of squeakings. […] Three hours after oral administration of the test compound the bending of the joint is repeated. Animals which squeak only once or not at all are considered to be protected against pain. Between about 9 and 20 rats are used per dose and the ED50 (95% reliability) is determined according to the method of Litchfield and Wilcoxon (1949). The dose which provides protection in 50% of the treated animals is taken as ED50.

For data set [2], the system named is male mice. In words: Determination of the Minimal Toxic Dose (oral, mice). The following applies: mouse, p.o.; observed 3 h, symptoms and deaths over 24 h. The protocol: 1. Determination of the Minimal Toxic Dose.
Maximum doses of 300 mg/kg of the test compound are administered orally to three male mice having a weight of 20-25 g and toxicity symptoms are carefully observed for a period of three hours. Furthermore, over a period of 24 hours from the administration all symptoms and deaths are registered. Side-symptoms are also observed and registered. Depending on their water solubility, the test compounds are administered either in form of aqueous solutions or in form of suspensions without the use of solvents. In order to maintain a stable suspension of the test compound, one drop of Tween-80 can be added and the mixture can be mechanically homogenized. In the case of compounds where deaths or toxic symptoms have been observed, additional mice are treated with decreasing doses until a dose is reached at which no toxic symptoms occur. The lowest dose which causes toxic symptoms is considered the minimal toxic dose.

Data set [3] deals with mice (tail flick, heat beam pain reaction). In words: Tail flick Test in Mice. Particulars: sc, 0.5 h; mouse, s.c.; 30 minutes after administration; >75% increase of reaction time in 50% of animals. How it is done: as §1
3. Tail flick Test in Mice.
This test is carried out according to the method described by D'Amour and Smith (1941), yet fed male and female mice having a body weight of 16 to 25 g are used instead of rats. Thirty minutes prior to treatment with the test compound, each mouse is placed separately in a cylindrical container in such a manner that it cannot turn itself or move forward. Its tail is positioned in a narrow groove projecting out of the container. A certain point of the tail of each animal (about 35 mm beyond the root of the tail) is subjected to the heat beam of a lamp of known strength and temperature which is positioned directly under the tail. The number of seconds which pass before the mouse moves its tail out of the light beam is determined twice, once 30 minutes and once 15 minutes prior to subcutaneous administration of the test compound (10 mg/kg). Mice which show a reaction time differing more than 25% are eliminated from the test. The reaction time is again determined 15 minutes and 30 minutes after the treatment and an increase of the reaction period of more than 75% of the average values prior to treatment in the same animal is considered as showing an analgesic effect. The ED50 (95% reliability) of each test compound 30 minutes after administration is evaluated according to the method of Litchfield and Wilcoxon (1949). The dose which increases the reaction time as compared to the reaction time prior to treatment for more than 75% in 50% of the animals is considered as ED50.

As usually defined, the ED50 is the midpoint of the dose-response relation. Lower therefore signals greater potency. In the case of `COc1ccc2c(c1)N(C)C(CNC(=O)c1ccc(C)s1)CN=C2c1ccccc1` (stereo not drawn) [Compound 9, 8-methoxy-1-methyl-2-[(5-methylthiophene-2-carbonyl)-aminomethyl]-5-phenyl-1H-2,3-dihydro-1,4-benzodiazepine], the values for the ED50 in data set [1] and in data set [3] were 14 mg/kg and 5.6 mg/kg, respectively. Further, the “MDL (minimal toxic dose)” value in data set [2] was above 200 mg/kg.
Regarding `CN1c2ccccc2C(c2ccccc2)=NCC1CNC(=O)c1ccco1` (stereo not drawn) [Compound 2, 1-methyl-2-[(furane-2-carbonyl)-aminomethyl]-5-phenyl-1H-2,3-dihydro-1,4-benzodiazepine], the median effective dose (ED50) in data set [1] was 32 mg/kg; in data set [3], 2.8 mg/kg. Also, the “MDL (minimal toxic dose)” value in data set [2] is listed as above 300 mg/kg.
